Structures are written as SMILES. pEC50: −log10 of the molar value. Read-outs that look alike come from different tables or passages of the source.

Consider two compounds from article PMC8357487 (Current Research in Pharmacology and Drug Discovery, 2021).

For one data set, the system named is icSARS-CoV-2-mNG. Kind of data set: microbe, parasite or virus in culture. Type of data set: cell-based, SARS-CoV-2. The conditions noted are these: for pEC50: Severe acute respiratory syndrome coronavirus 2, Caco-2, 48 h, read-out: mean EC50, icSARS-CoV-2-mNG inhibition assay.
The conditions of data set [1]: humans; ref Humeniuk et al., 2020; cited from earlier work.
Data set [2] can be described thus: Cytotoxicity, MTS method, Huh-7. The format is cell-based, human. Conditions: human, Huh-7 cells. In general terms: Tetrazolium dyes change colour on reduction, which living cells bring about.
The subject of the next data set is Huh-7 cells. Kind of data set: Cytotoxicity, MTS method, Huh-7. The format is cell-based, human. Conditions: MTS.
Data set [3] deals with SARS-CoV-2. Put plainly: microbe, parasite or virus in culture. The format is cell-based.
Data set [4] is described as follows: Cytotoxicity, MTS method, Caco-2. The conditions noted are these: human, Caco-2 cells. The format is cell-based.
A short description of data set [5]: Cytotoxicity, MTS method, Calu-3. The format is cell-based. Conditions: human, Calu-3 cells.
For data set [6] the following is noted: monkeys; ref Warren et al., 2016; cited from earlier work.
The nature of data set [7]: Cytotoxicity, MTS method, Vero CCL-81. The format is cell-based. Conditions: African monkey, Vero CCL-81 cells.
Data set [8] concerns SARS-CoV-2. Conditions: Caco-2 cells; ref Li et al., 2021a; cited from earlier work.
Setting [9] is: Severe acute respiratory syndrome coronavirus 2, 48 h.
The mark [10] stands for this setting: Severe acute respiratory syndrome coronavirus 2, Caco-2, 72 h.
Setting [11] is: Severe acute respiratory syndrome coronavirus 2, Calu-3, 72 h.

As to `CCC(CC)COC(=O)[C@H](C)N[P@](=O)(OC[C@H]1O[C@@](C#N)(c2ccc3c(N)ncnn23)[C@H](O)[C@@H]1O)Oc1ccccc1` [Remdesivir], the pEC50 – broadly, the EC50 on a negative log10 scale, so that one unit is a factor of ten – was 7.74 in the data set on icSARS-CoV-2-mNG, 6.15 in the data set on SARS-CoV-2 [3] (setting [9]), 9.00 in the data set on SARS-CoV-2 [3] (setting [10]) and 6.96 with SARS-CoV-2 [3] (setting [11]). The results for the plasma half-life in data set [1] and in data set [6] were approximately 1 h and “about 0.4 h”, respectively. The half-maximal cytotoxic concentration (CC50) (commonly the concentration that lowers cell viability or growth by half) in [2] is 2100 nM; in [4], more than 100000 nM; in data set [5] it was 72800 nM. For the same compound, the Cytotoxicity in words entry with Huh-7 cells was “quite toxic”. Also, the EC90 (in general, the concentration needed for an effect of 90%) in the data set with SARS-CoV-2 [3] (setting [9]) is 1700 nM; with SARS-CoV-2 [3] (setting [10]) it was 22 nM; in the data set with SARS-CoV-2 [3] (setting [11]), 490 nM.

For the compound `N#C[C@@]1(c2ccc3c(N)ncnn23)O[C@H](CO)[C@@H](O)[C@H]1O` [GS-441524], the CC50 in data set [7], in data set [2], in data set [4] and in [5] was more than 100000 nM each time. Moreover, in the data set with SARS-CoV-2 [8], the “Difference in EC50 between GS-441524 and remdesivir” value was 6 fold. The “EC50 difference of GS-441524 compared to remdesivir, icSARS-CoV-2-mNG assay” value in the data set with icSARS-CoV-2-mNG (Caco-2 cells) was 70 fold. Further, the negative logarithm of the EC50 (pEC50) in the data set on icSARS-CoV-2-mNG was 5.89; with SARS-CoV-2 [3] (setting [9]), 6.10; in the data set on SARS-CoV-2 [3] (setting [10]), 7.10; with SARS-CoV-2 [3] (setting [11]), 6.60. For the same compound, the EC90 in the data set with SARS-CoV-2 [3] (setting [9]) was found to be 1600 nM; in the data set on SARS-CoV-2 [3] (setting [10]) it was 1420 nM; with SARS-CoV-2 [3] (setting [11]), 2350 nM.
